{
  "source": "ChEMBL document CHEMBL1153154",
  "about": "“A single step purification for autolytic zinc proteinases” (Bioorg Med Chem Lett, 2010)",
  "key": {"Stromelysin-1 [1]": {"target": "T1, Stromelysin-1 (Homo sapiens, UniProt P08254)", "T1 sequence (P08254 whole entry, the tested form may be a part)": "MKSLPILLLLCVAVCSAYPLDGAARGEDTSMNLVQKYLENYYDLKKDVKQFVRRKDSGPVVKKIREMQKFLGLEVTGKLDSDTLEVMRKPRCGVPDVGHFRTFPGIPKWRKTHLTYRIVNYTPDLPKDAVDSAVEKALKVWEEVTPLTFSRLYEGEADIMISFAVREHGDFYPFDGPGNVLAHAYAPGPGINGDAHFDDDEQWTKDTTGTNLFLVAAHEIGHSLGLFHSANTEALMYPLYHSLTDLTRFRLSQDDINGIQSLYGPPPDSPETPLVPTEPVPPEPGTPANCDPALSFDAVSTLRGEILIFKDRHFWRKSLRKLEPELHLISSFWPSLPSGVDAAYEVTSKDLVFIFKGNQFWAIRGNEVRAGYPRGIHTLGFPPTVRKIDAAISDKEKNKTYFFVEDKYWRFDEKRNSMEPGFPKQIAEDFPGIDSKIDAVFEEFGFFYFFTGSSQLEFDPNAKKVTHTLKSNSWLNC", "experiment": "Binding affinity to stromelysin-1 catalytic domain"}, "Stromelysin-1 [2]": {"target": "T1, Stromelysin-1", "experiment": "Binding affinity to stromelysin-1 catalytic domain expressed in Escherichia coli BL21 (DE3) by isothermal titration […]"}},
  "note": "pKd: −log10 of the molar value.",
  "data": [
    {"smiles": "COc1ccc(S(=O)(=O)N[C@@H](C(=O)NO)C(C)C)cc1", "values": [
      {"measurement": "pKd", "setting": "Stromelysin-1 [1]", "result": 6.95},
      {"measurement": "pKd", "setting": "Stromelysin-1 [2]", "result": 7.37}
    ]},
    {"smiles": "N#Cc1ccc(-c2ccc(OCCC(=O)NO)cc2)cc1", "values": [
      {"measurement": "pKd", "setting": "Stromelysin-1 [1]", "result": 7.00},
      {"measurement": "pKd", "setting": "Stromelysin-1 [2]", "result": 6.96}
    ]},
    {"smiles": "N#Cc1ccc(-c2ccc(OCCCCC(=O)NO)cc2)cc1", "values": [
      {"measurement": "pKd", "setting": "Stromelysin-1 [1]", "result": 4.96},
      {"measurement": "pKd", "setting": "Stromelysin-1 [2]", "result": 4.77}
    ]}
  ]
}
